Test: In vitro intrinsic binding affinity at platelet activating factor receptor using rabbit platelet membranes

SMILES	Ki [µM]
COc1cc(C(C)CCCc2ccc(F)cc2)cc2c1C1=C(CCN(Cc3ccccn3)C1)C(C)(C)O2 (stereo unspecified)	4.21
CNC(=O)CN1CCC2=C(C1)c1c(O)cc(C(C)C)cc1OC2(C)C	9
COc1cc(C(C)CCCc2ccc(F)cc2)cc2c1C1=C(CCN(CCCCC(=O)O)C1)C(C)(C)O2 (stereo unspecified)	5.5
CNC(=O)CN1CCC2=C(C1)c1c(O)cc(C(C)CCCc3ccc(F)cc3)cc1OC2(C)C (stereo unspecified)	0.331
CNC(=O)CN1CCC2=C(C1)c1c(OCC(=O)O)cc(C(C)CCCc3ccc(F)cc3)cc1OC2(C)C (stereo unspecified)	0.925
CNC(=O)CN(C)CC1=CC(C)(C)Oc2cc(C(C)CCCc3ccc(F)cc3)cc(O)c21 (stereo unspecified)	1.57
CNC(=O)CN1CCC2=C(C1)c1c(OC)cc(C(C)CCCc3ccc(F)cc3)cc1OC2(C)C (stereo unspecified)	0.142
CC(CCCc1ccc(F)cc1)c1cc(O)c2c(c1)OC(C)(C)C1=C2CN(CC(=O)N(C)C)CC1 (stereo unspecified)	15.8
CCCCCC(C)C(C)c1cc(O)c2c(c1)OC(C)(C)C1=C2CN(CC(=O)NC)CC1 (stereo unspecified)	3.68
CC(CCCc1ccc(F)cc1)c1cc(O)c2c(c1)OC(C)(C)C1=C2CN(C(=O)CO)CC1 (stereo unspecified)	20.5
C#CCN1CCC2=C(C1)c1c(O)cc(C(C)CCCc3ccc(F)cc3)cc1OC2(C)C (stereo unspecified)	3.25
COc1cc(C(C)CCCc2ccc(F)cc2)cc2c1C1=C(CCN(CCC(=O)O)C1)C(C)(C)O2 (stereo unspecified)	4.4
CNC(=O)CN1CCC(C(C)(C)O)=C(c2c(O)cc(C(C)CCCc3ccc(F)cc3)cc2O)C1 (stereo unspecified)	23.5
CC1CSC2=C1c1c(O)cc(C(C)CCCc3ccc(F)cc3)cc1OC2(C)C (stereo unspecified)	43.8
CNC(=O)CCCN1CCC2=C(C1)c1c(O)cc(C(C)CCCc3ccc(F)cc3)cc1OC2(C)C (stereo unspecified)	20.7
COc1cc(C(C)CCCc2ccc(F)cc2)cc2c1C1=C(CCN(CCCCCC(=O)O)C1)C(C)(C)O2 (stereo unspecified)	25

Reference: BindingDB's records for doi:10.1021/jm00089a016 (Abbott Laboratories, 1992)
